# Experimental data from PubChem BioAssay (NCI).
#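 Results reflect a 48-hour exposure of cells in 96-well plates to compound at five concentrations. TGI: concentration producing complete growth inhibition.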
# How the values were obtained:
# Experiment in all cases: NCI-60 cell line screen, 48 h
# CAKI-1 renal = tested on: CAKI-1 renal
# HCT-15 colon = tested on: HCT-15 colon
# KM12 colon = tested on: KM12 colon
# MCF7 breast = tested on: MCF7 breast
# NCI-H23 lung = tested on: NCI-H23 lung
# NCI/ADR-RES ovarian = tested on: NCI/ADR-RES ovarian
# OVCAR-5 ovarian = tested on: OVCAR-5 ovarian
# SF-268 CNS = tested on: SF-268 CNS
# SK-MEL-2 melanoma = tested on: SK-MEL-2 melanoma
# SK-MEL-5 melanoma = tested on: SK-MEL-5 melanoma
# UO-31 renal = tested on: UO-31 renal
# BT-549 breast = tested on: BT-549 breast
# HCC-2998 colon = tested on: HCC-2998 colon
# HL-60(TB) leukemia = tested on: HL-60(TB) leukemia
# HS 578T breast = tested on: HS 578T breast
# NCI-H460 lung = tested on: NCI-H460 lung
# SF-295 CNS = tested on: SF-295 CNS
# SNB-75 CNS = tested on: SNB-75 CNS
# LOX IMVI melanoma = tested on: LOX IMVI melanoma
SMILES,TGI (CAKI-1 renal),TGI (HCT-15 colon),TGI (KM12 colon),TGI (MCF7 breast),TGI (NCI-H23 lung),TGI (NCI/ADR-RES ovarian),TGI (OVCAR-5 ovarian),TGI (SF-268 CNS),TGI (SK-MEL-2 melanoma),TGI (SK-MEL-5 melanoma),TGI (UO-31 renal),TGI (BT-549 breast),TGI (HCC-2998 colon),TGI (HL-60(TB) leukemia),TGI (HS 578T breast),TGI (NCI-H460 lung),TGI (SF-295 CNS),TGI (SNB-75 CNS),TGI (LOX IMVI melanoma)
N#CC1=C(Nc2ccccc2)SC=C(c2ccccc2)NC1=NCc1ccccc1,> 100 µM,> 100 µM,> 100 µM,> 100 µM,> 100 µM,> 100 µM,> 100 µM,> 100 µM,> 100 µM,> 100 µM,> 100 µM,–,–,–,–,–,–,–,–
COC(=O)[C@]12CCC(C)(C)C[C@H]1[C@H]1C(=O)C=C3[C@@]4(C)C=C(C#N)C(=O)C(C)(C)[C@@H]4CC[C@@]3(C)[C@]1(C)CC2,0.078 µM,0.0392 µM,0.159 µM,–,0.0392 µM,0.0337 µM,0.194 µM,–,0.187 µM,0.109 µM,1.15 µM,0.194 µM,0.0305 µM,0.421 µM,2.14 µM,> 13.5 µM,0.105 µM,3.62 µM,–
O=C(Oc1ccccc1)N1c2ccccc2[C@@]23O[C@]24CCC[C@H]3C#C/C=C\C#C[C@H]14,25.7 µM,25.9 µM,26.4 µM,–,28.7 µM,33.2 µM,24.1 µM,43.2 µM,25.5 µM,–,26.5 µM,25.5 µM,–,26.1 µM,47.1 µM,11.4 µM,30.9 µM,23.3 µM,25.6 µM
CC1C[C@]2(C)C(=NCCN)Nc3ccccc3[C@@H]2N(C)c2ccccc21 (stereo not given in full),31.3 µM,34.5 µM,30 µM,21.3 µM,31.4 µM,59 µM,27.4 µM,30.4 µM,34.3 µM,26.8 µM,23.2 µM,–,9.69 µM,36 µM,38.2 µM,24 µM,32 µM,13.2 µM,28.2 µM
CC(CO)CCNc1ncnc2c1ncn2CCC(=O)OC(C)(C)C (stereo not given),> 100 µM,–,> 100 µM,> 100 µM,> 100 µM,> 100 µM,> 100 µM,> 100 µM,–,> 100 µM,> 100 µM,–,> 100 µM,> 100 µM,> 100 µM,> 100 µM,> 100 µM,> 100 µM,> 100 µM
C/C(=N/NC(=S)Nc1ccc(Cl)cc1)c1cccc(/C(C)=N\NC(=S)Nc2ccc(Cl)cc2)n1,39.4 µM,> 100 µM,> 100 µM,9.25 µM,> 100 µM,91.3 µM,> 100 µM,58.1 µM,49.2 µM,18.6 µM,53.2 µM,–,> 100 µM,–,–,56.4 µM,29.6 µM,> 100 µM,26.8 µM
CCCCCCCCCCCCC/C=C/[C@@H](O)[C@H](COC1OC(CO)C(OC2OC(CO)C(O)C(OC3(C(=O)O)CC(O)C(NC(C)=O)C(C(O)C(O)CO)O3)C2O)C(O)C1O)N=[N+]=[N-] (stereo not given in full),> 100 µM,> 100 µM,34.1 µM,> 100 µM,> 100 µM,59.9 µM,> 100 µM,41.3 µM,49.7 µM,41.6 µM,44.1 µM,–,> 100 µM,80.8 µM,> 100 µM,> 100 µM,88 µM,37.1 µM,36.6 µM
O=[N+]([O-])/C(C(Cl)=C(Cl)Cl)=C(/Nc1ccccc1)SCc1ccccc1,68.7 µM,29.7 µM,32.5 µM,–,40.5 µM,31.1 µM,41.2 µM,43.4 µM,44.7 µM,37 µM,39 µM,–,45 µM,40.2 µM,75.5 µM,42.8 µM,90 µM,–,39.1 µM
Cc1cc(C)c(C(=O)c2nnc3ccccc3c2N)c(C)c1,75.9 µM,–,42 µM,–,> 100 µM,74.2 µM,> 100 µM,> 100 µM,31.9 µM,26.8 µM,–,> 100 µM,–,73.4 µM,57.3 µM,–,–,86.3 µM,34.9 µM
O=C(O)C1C2C=CC(C2)C1c1ccccc1 (stereo not given),> 100 µM,> 100 µM,> 100 µM,> 100 µM,> 100 µM,> 100 µM,> 100 µM,> 100 µM,> 100 µM,> 100 µM,> 100 µM,–,> 100 µM,> 100 µM,> 100 µM,> 100 µM,> 100 µM,> 100 µM,> 100 µM
COC(=O)C1(C(=O)OC)C/C(C)=C(/C)SCCCS1,> 100 µM,> 100 µM,> 100 µM,> 100 µM,> 100 µM,> 100 µM,> 100 µM,> 100 µM,> 100 µM,> 100 µM,> 100 µM,–,> 100 µM,–,> 100 µM,> 100 µM,> 100 µM,> 100 µM,> 100 µM
